Measurements reported in patent publication US6413951B2, “20-fluoro-17(20)-vinyl steroids” (Aventis Pharmaceuticals, Inc., priority 2000, dated 2002).

How the values were obtained:
[1] = test system: cynomologous monkey C17,20 lyase; assay: In vitro C17,20 lyase assay (testicular microsomes); format: biochemical, cynomolgus monkey; parameters: unit of the concentration uncertain
Description: In vitro C17,20 lyase assay: Compounds were tested for inhibition of cynomologous monkey C17,20 lyase in vitro using microsomal preparations of the enzyme from testicular tissue. Testes were removed from anesthetized animals and flash frozen in liquid nitrogen. Microsomes were isolated as described in Schatzman et al., Anal. Biochem., 175, 219-226 (1988). The compound to be tested was dissolved in DMSO and diluted in 0.05M potassium phosphate buffer, pH 7.4, to give the desired concentrations of test compound, in an amount which contributes 0.1% v/v DMSO to the total assay volume. […] Control assays contained all components, including DMSO, but no test compound. All assays were performed in duplicate. […] The complete assay was incubated at 34° C. for 6 minutes. […] Radioactivity in the steriod peaks was measured using a Radiometric Model HS or Model A515 Flo-One detector. The enzyme activity for each assay was calculated from the conversion of substrate to products, and. the results expressed as percent inhibition of control.

rat 5α-reductase = conditions: read-out: Km values of testosterone, multiple experiments
[2] = test system: cynomolgus monkey 5α-reductase; conditions: read-out: Km values of testosterone, multiple experiments
Description: (§1) In vitro 5α-reductase assay: The activity of the present compounds as inhibitors of steroid 5α-reductase was determined using microsomal preparations of the 5α-reductase enzyme from human or laboratory animal prostate tissue. Specifically, prostate tissue was rapidly frozen in liquid nitrogen following removal from the human patient or from a cynomologus monkey (Macaca fascicularis) and subsequently stored at −80° C. The tissue was thawed, minced, and then homogenized in 5 volumes of 0.05M potassium phosphate buffer, pH 7.0, using a Tekmar homogenizer with 3×5 second bursts, followed by 10 strokes in a Dounce homogenizer. The homogenate was sonified in three pulses of 5 seconds each at 50% of maximum power. The homogenate was subjected to differential centrifugation with each supernatant successively centrifuged at 600×G and […] in a Beckman J21 centrifuge followed by 120,000×G in a Beckman Model L5-75 ultracentrifuge. The final pellet, containing the microsomal fraction, was reserved and resuspended in 0.05M potassium phosphate buffer, pH 7.0, containing 25% (w/v) glycerol equal to 1 mL per 3 g wet tissue. The suspension was divided into aliquots, flash frozen using dry ice in methanol, and stored at −80° C. […] Protein concentration was determined by the BioRad dye binding method (BioRad, Richmond, Calif., USA). […]

human 5α-reductase = molecular target: T1, human 5α-reductase (Homo sapiens, UniProt P31213); assay: In vitro 5α-reductase assay (prostate microsomes), human; format: biochemical; conditions: read-out: Km values of testosterone, multiple experiments
T1 construct: microsomal preparations of the 5α-reductase enzyme from human or laboratory animal prostate tissue; from tissue; host or cells: human prostate, microsomes
T1 sequence (P31213 1-254): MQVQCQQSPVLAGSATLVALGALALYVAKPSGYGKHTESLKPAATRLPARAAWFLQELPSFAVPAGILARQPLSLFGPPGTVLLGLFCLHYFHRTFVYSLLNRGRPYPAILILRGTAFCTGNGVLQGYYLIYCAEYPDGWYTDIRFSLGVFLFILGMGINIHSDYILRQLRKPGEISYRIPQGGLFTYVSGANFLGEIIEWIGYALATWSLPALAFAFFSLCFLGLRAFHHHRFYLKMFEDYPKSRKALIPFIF
Description: as §1

[3] = Conc. 1 (unit uncertain), Preinc. 0 min
[4] = Conc. 1 (unit uncertain), Preinc. 40 min
[5] = Conc. 10 (unit uncertain), Preinc. 0 min
[6] = Conc. 10 (unit uncertain), Preinc. 40 min

SMILES	% Inhibition [1, 3] [%]	% Inhibition [1, 4] [%]	% Inhibition [1, 5] [%]	% Inhibition [1, 6] [%]	melting point [°C]	Km (rat 5α-reductase) [µM]	Km [2] [µM]	Km (human 5α-reductase) [µM]
C[C@]12CC[C@H](O)CC1=CC[C@@H]1[C@@H]2CC[C@]2(C)/C(=C(/F)CO)CC[C@@H]12 [E CH2OH, (17E)-20-Fluoropregna-5,17(20)-diene-3β,21-diol]	63	61	85	87	214 to 216	–	–	–
C/C(F)=C1/CC[C@H]2[C@@H]3CC=C4C[C@@H](O)CC[C@]4(C)[C@H]3CC[C@]12C [E CH3, (17E)-20-fluoropregna-5,17(20)-dien-3β-ol]	54	60	88	94	129 to 133	–	–	–
C[C@]12CC[C@H](O)CC1=CC[C@@H]1[C@@H]2CC[C@]2(C)/C(=C(\F)CO)CC[C@@H]12 [Z CH2OH, (17Z)-20-Fluoropregna-5,17(20)-diene-3β,21-diol]	96	94	100	100	198 to 203	–	–	–
C/C(F)=C1\CC[C@H]2[C@@H]3CC=C4C[C@@H](O)CC[C@]4(C)[C@H]3CC[C@]12C [Z CH3, (17Z)-20-Fluoropregna-5,17(20)-dien-3β-ol]	49	72	78	94	153 to 155	–	–	–
C[C@]12CC[C@H]3[C@@H](CCC4=CC(=O)CC[C@@]43C)[C@@H]1CC[C@@H]2O [testosterone, 17β-hydroxyandrost-4-en-3-one]	–	–	–	–	–	0.74 to 0.9	0.025 to 0.091	0.125 to 0.273
